Read-outs that look alike come from different tables or passages of the source.
Columns and labels:
[1] = biological target: ROCK-II (Homo sapiens, UniProt O75116); test: ROCK-II biochemical counter-screen
[2] = tested on: p-cofilin in CEM-SS T cells; test: Cofilin phosphorylation cell assay in CEM-SS T cell lines; assay type: cell-based; settings: Homo sapiens
Description: Cells were lysed in NuPAGE LDS Sample Buffer (Invitrogen) followed by sonication. Samples were heated at 90° C. for 10 minutes, separated by SDS-PAGE, and then transferred onto nitrocellulose membranes (Invitrogen). The membranes were washed in TBST for 3 minutes and then blocked for 30 minutes at room temperature with Starting Block blocking buffer (Pierce). […] The blots were washed three times for 15 minutes and scanned with Odyssey Infrared Imager (Li-cor Biosciences). The same blots were also stripped and reprobed with antibodies against GAPDH (Abcam) as a loading control.

[3] = Plasma pharmacokinetics studies on rats; settings: rats; for Cmax: read-out: Cmax (iv)
Description: In vivo pharmacokinetics (PK) studies were conducted for selected compounds during the whole optimization at various stages in order to identify structural elements that are favorable for in vivo applications, and/or to evaluate the feasibility of optimized Limk inhibitors for animal studies.

[4] = biological target: Limk1 (Homo sapiens, UniProt P53667); test: Limk1 biochemical assay (Reaction Biology, 10-dose IC50); parameters: His; purchased Reaction Biology Corporation; host or cells: insect cells
Limk1, sequence (P53667 285-638): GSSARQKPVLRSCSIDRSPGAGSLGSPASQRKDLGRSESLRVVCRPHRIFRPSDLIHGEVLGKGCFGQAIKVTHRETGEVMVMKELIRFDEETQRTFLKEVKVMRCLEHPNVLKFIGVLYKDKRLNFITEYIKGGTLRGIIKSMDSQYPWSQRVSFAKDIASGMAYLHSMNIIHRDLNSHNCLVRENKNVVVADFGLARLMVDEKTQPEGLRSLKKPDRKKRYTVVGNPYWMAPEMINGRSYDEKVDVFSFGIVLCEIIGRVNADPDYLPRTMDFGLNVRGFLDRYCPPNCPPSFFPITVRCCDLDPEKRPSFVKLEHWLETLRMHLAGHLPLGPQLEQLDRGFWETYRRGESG

[5] = Table 4, means of ≥2 experiments, read-out: IC50 (nM) ROCK-II

ROCK-II, sequence (O75116 whole entry, species assumed): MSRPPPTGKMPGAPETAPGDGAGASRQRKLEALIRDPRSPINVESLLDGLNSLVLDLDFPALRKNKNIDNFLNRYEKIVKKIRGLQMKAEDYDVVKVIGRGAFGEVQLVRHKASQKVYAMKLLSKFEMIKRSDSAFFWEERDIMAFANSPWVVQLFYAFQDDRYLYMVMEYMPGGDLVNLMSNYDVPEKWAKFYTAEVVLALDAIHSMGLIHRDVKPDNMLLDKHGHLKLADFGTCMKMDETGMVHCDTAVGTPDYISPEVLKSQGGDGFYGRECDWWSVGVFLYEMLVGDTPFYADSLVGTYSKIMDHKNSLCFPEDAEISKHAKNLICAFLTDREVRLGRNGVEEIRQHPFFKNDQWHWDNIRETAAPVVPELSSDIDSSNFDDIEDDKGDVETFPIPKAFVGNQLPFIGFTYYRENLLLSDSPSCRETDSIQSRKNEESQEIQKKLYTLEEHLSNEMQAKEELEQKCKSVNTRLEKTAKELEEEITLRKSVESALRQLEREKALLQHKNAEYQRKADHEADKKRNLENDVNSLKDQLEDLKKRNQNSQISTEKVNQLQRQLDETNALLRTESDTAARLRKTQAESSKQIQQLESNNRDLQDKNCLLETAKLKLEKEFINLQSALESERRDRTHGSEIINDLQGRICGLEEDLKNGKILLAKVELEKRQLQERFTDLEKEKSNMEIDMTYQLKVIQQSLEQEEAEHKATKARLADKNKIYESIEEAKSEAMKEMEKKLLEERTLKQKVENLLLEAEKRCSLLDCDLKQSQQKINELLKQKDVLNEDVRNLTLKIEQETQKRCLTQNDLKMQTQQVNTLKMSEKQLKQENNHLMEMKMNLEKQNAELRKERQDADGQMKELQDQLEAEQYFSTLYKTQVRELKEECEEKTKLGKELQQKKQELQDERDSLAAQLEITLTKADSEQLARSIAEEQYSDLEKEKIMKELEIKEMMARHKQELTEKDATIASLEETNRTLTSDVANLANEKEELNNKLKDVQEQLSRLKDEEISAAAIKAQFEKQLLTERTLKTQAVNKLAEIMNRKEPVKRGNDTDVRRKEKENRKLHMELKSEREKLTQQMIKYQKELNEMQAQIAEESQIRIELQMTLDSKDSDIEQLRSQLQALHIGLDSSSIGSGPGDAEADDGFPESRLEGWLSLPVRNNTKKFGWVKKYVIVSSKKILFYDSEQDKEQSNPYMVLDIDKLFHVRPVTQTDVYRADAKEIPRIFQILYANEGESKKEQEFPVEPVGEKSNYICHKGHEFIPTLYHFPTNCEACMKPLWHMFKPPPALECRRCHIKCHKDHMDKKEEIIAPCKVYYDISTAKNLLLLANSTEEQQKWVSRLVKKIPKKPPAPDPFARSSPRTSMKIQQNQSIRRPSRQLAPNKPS

Compound | IC50 [1, 5] | inhibition at 1 µM [2] | AUC (iv) ([3]; iv dosing 1 mg/kg) | Cl (iv) ([3]; iv dosing 1 mg/kg) | T1/2 (iv) ([3]; iv dosing 1 mg/kg) | Cmax ([3]; iv dosing 1 mg/kg) | IC50 ([1]; read-out: ROCK-II IC50) | IC50 ([4]; Table 4, means of ≥2 experiments, read-out: IC50 (nM) Limk1) | IC50 ([4]; read-out: Limk1 IC50) | Yd (iv) ([3]; iv dosing 1 mg/kg) | F (%) (po) ([3]; po dosing 2 mg/kg)
Cc1c[nH]c2ncnc(-c3ccc(NC(=O)N(CCN)c4ccc(Cl)cc4)cc3)c12 [Compound 18p, 1-(2-Aminoethyl)-1-(4-chlorophenyl)-3-(4-(5-methyl-7H-pyrrolo[2,3-d]pyrimidin-4-yl)phenyl)urea] | 460 nM | > 50% | 0.7 µM·h | 55.9 mL/min/kg | 5.1 h | 1100 nM | – | – | – | – | –
Cc1c[nH]c2ncnc(-c3ccc(NC(=O)N(CCN(C)C)c4ccc(Cl)cc4)cc3)c12 [Compound 18r, 1-(4-Chlorophenyl)-1-(2-(dimethylamino)ethyl)-3-(4-(5-methyl-7H-pyrrolo[2,3-d]pyrimidin-4-yl)phenyl)urea] | > 10000 nM | > 50% | 0.6 µM·h | 42.2 mL/min/kg | 6.1 h | 200 nM | > 10000 nM | 20 nM | ~20 nM | 17.1 L/kg | 0%

From patent publication US20190292189A1, “LIM KINASE INHIBITORS” (VIRONGY, LLC, priority 2016, published 2019)
